Data as given in ChEMBL document CHEMBL1201862, “PubChem BioAssay data set” (2004).
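The compound was tested at five concentrations on cells cultured in 96-well plates, with a 48-hour exposure period. Here, GI50 denotes the concentration required for 50% inhibition of growth.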 Calls of active or inactive are those of the source. Rule as the data show it: active = GI50 up to about 1.1 µM and inactive = higher.

Key:
Assay in all cases: NCI anticancer screen, dose series, 48 h
HOP-92 = tested on: HOP-92
RXF 393 = tested on: RXF 393
OVCAR-4 = tested on: OVCAR-4
NCI-H226 = tested on: NCI-H226
Malme-3M = tested on: Malme-3M
UACC-257 = tested on: UACC-257
A549 = tested on: A549
KM12 = tested on: KM12
NCI-H522 = tested on: NCI-H522
OVCAR-8 = tested on: OVCAR-8
OVCAR-5 = tested on: OVCAR-5
786-0 = tested on: 786-0
SF-268 = tested on: SF-268
HCT-15 = tested on: HCT-15
SK-MEL-28 = tested on: SK-MEL-28
MOLT-4 = tested on: MOLT-4
HT-29 = tested on: HT-29
BT-549 = tested on: BT-549
EKVX = tested on: EKVX
MDA-N = tested on: MDA-N

Measured: GI50

COc1ccc(CC2c3cc(OC)c(OC)c(OC)c3CC[N+]2(C)C)cc1Oc1ccc(CC2c3cc4c(c(OC)c3CCN2C)OCO4)cc1 (stereo not given)
inactive: HOP-92 > 100 µM | RXF 393 > 100 µM | OVCAR-4 > 100 µM | NCI-H226 > 100 µM | Malme-3M > 100 µM | UACC-257 > 100 µM | A549 > 100 µM | KM12 > 100 µM | NCI-H522 97.7 µM | OVCAR-8 > 100 µM | OVCAR-5 > 100 µM | 786-0 > 100 µM | SF-268 > 100 µM | SK-MEL-28 > 100 µM | MOLT-4 > 100 µM | HT-29 > 100 µM | BT-549 > 100 µM | EKVX > 100 µM | MDA-N > 100 µM
> 100 µM: HCT-15

O=C1CC(n2cccc2)c2c(Br)sc(Br)c21 (stereo not given)
12.8 µM: HCT-15
inactive: HOP-92 16.1 µM | RXF 393 20.6 µM | OVCAR-4 16.7 µM | NCI-H226 18.8 µM | Malme-3M 18.5 µM | UACC-257 15.1 µM | A549 21 µM | KM12 7.23 µM | NCI-H522 1.49 µM | OVCAR-8 15.2 µM | OVCAR-5 17.7 µM | 786-0 18.3 µM | SF-268 14.8 µM | SK-MEL-28 20.3 µM | MOLT-4 8.93 µM | HT-29 16.6 µM | BT-549 18.6 µM | EKVX 16 µM | MDA-N 16.3 µM

N#Cc1c(-c2ccc(Cl)cc2)c(-c2ccc(Cl)cc2)nn(CCOC(=O)CCC(=O)O)c1=O
inactive: OVCAR-4 1.45 µM | UACC-257 9.64 µM | A549 1.31 µM | OVCAR-5 1.27 µM | SK-MEL-28 5.47 µM | BT-549 11.9 µM | EKVX 2.69 µM
active: HOP-92 < 0.01 µM | RXF 393 0.327 µM | NCI-H226 0.258 µM | Malme-3M 1.02 µM | KM12 0.245 µM | NCI-H522 0.51 µM | OVCAR-8 1.02 µM | 786-0 0.755 µM | SF-268 0.809 µM | MOLT-4 0.566 µM | HT-29 0.796 µM | MDA-N 0.08 µM
0.532 µM: HCT-15

CC(C)COC(=O)OC(=O)c1ccc(N(C)Cc2cnc3nc(N)nc(N)c3n2)cc1
1.75 µM: HCT-15
inactive: HOP-92 47.5 µM | RXF 393 16.1 µM | OVCAR-4 > 100 µM | NCI-H226 > 100 µM | Malme-3M 36.1 µM | UACC-257 47.3 µM | A549 5.61 µM | KM12 26.5 µM | NCI-H522 23.1 µM | OVCAR-8 6.12 µM | OVCAR-5 > 100 µM | 786-0 5.37 µM | SF-268 9.89 µM | SK-MEL-28 > 86.1 µM | MOLT-4 4.31 µM | HT-29 26.9 µM | BT-549 20.9 µM | EKVX > 52.7 µM | MDA-N 7.96 µM

S=C1SCN(Cc2ccco2)CN1c1ccc(Br)cc1
8.69 µM: HCT-15
inactive: HOP-92 20 µM | RXF 393 30.6 µM | OVCAR-4 13.9 µM | NCI-H226 25.2 µM | Malme-3M 17.4 µM | UACC-257 15.6 µM | A549 18.5 µM | KM12 11.1 µM | NCI-H522 10.3 µM | OVCAR-8 23.3 µM | OVCAR-5 16.8 µM | 786-0 17.1 µM | SF-268 13.2 µM | SK-MEL-28 17.8 µM | MOLT-4 17.4 µM | HT-29 13.8 µM | BT-549 16.7 µM | EKVX 18.7 µM | MDA-N 16.9 µM
